Like-named read-outs stand apart in the source and are kept apart here.
Experiments:
Assay type in all cases: physicochemical
[1] = XRPD characterization (summary Table 59); conditions: crystallinity
[2] = TG/DSC and DSC thermal analysis; conditions: for TGA/DSC thermal event, onset: value before the brackets; for TGA/DSC thermal event, peak: value in brackets
Description: In the examples below, to measure TGA/DSC, 2-10 mg of material was added into a pre-tared open aluminum pan and loaded into a TA Instruments Discovery SDT 650 Auto—Simultaneous DSC and held at room temperature. The sample was then heated at a rate of 10° C./min from 30° C. to 400° C. during which time the change in sample weight was recorded along with the heat flow response (DSC). Nitrogen was used as the sample purge gas, at a flow rate of 200 cm^3/min.
(§1) METHOD A: In Example 3, 1-5 mg of material was weighed into an aluminum DSC pan and sealed non-hermetically with a pierced aluminum lid. The sample pan was then loaded into a TA DSC2500 and held at 20° C. Once a stable heat-flow response was obtained, the sample and reference were heated to an upper temperature of 200° C. at a scan rate of 10° C./min and the resulting heat flow response monitored. The sample was held at the upper temperature for 3 minutes, before it was cooled at 10° C./min to 20° C., reheated to the upper temperature at 10° C./min, and then cooled again to 20° C. at the same rate. Nitrogen was used as the purge gas, at a flow rate of 50 cm^3/min.
as §1, with “B:” for “A:”, “Examples 2A, 14, and 17,” for “Example 3,”, “−80° C. and then” for “20° C.,”, “C./min.” for “C./min, and then cooled again to 20° C. at the same rate.”
METHOD C: In Example 5, 1-5 mg of a sample were weighed into an aluminum DSC pan and sealed non-hermetically with an aluminum lid. The sample pan was then loaded into a TA Instruments Discovery DSC 2500 differential scanning calorimeter equipped with a RC90 cooler. The sample and reference were heated to 190° C. at a scan rate of 10° C./min and the resulting heat flow response monitored. The sample was re-cooled to −80° C. and then reheated again to 190° C. all at 10° C./min. Nitrogen was used as the purge gas, at a flow rate of 50 cm^3/min.
2-10 mg of material was added into a pre-tared open aluminum pan and loaded into a TA Instruments Discovery SDT 650 Auto-Simultaneous DSC and held at room temperature. The sample was then heated at a rate of 10° C./min from 30° C. to 400° C. during which time the change in sample weight was recorded along with the heat flow response (DSC). Nitrogen was used as the sample purge gas, at a flow rate of 200 cm^3/min.
as §1, with “1-5” for “METHOD A: In Example 3, 1-5”, “min,” for “minutes,”

[3] = Dynamic Vapor Sorption (DVS); conditions: for post-DVS sample (XRPD / appearance): DVS at 25° C.
Description: (§2) METHOD A: In Example 11, approximately 5-15 mg of sample was placed into a mesh vapor sorption balance pan and loaded into either a DVS Intrinsic or DVS Advantage dynamic vapor sorption balance by Surface Measurement Systems. The sample was subjected to a ramping profile from 40-90% relative humidity (RH) at 10% increments, maintaining the sample at each step until a stable weight had been achieved (dm/dt 0.004%, minimum step length 30 minutes, maximum step length 500 minutes) at 25° C. After completion of the sorption cycle, the sample was dried using the same procedure to 0% RH and then a second sorption cycle back to 40% RH was carried out. Two cycles were performed. The weight change during the sorption/desorption cycles were plotted, allowing the hygroscopic nature of the sample to be determined. XRPD analysis was then carried out on the residual solid.
as §2, with “B:” for “A:”, “Examples 2A, 3, 14, and 17,” for “Example 11,”, “10-20” for “5-15”, “determined.” for “determined. XRPD analysis was then carried out on the residual solid.”
as §2, with “Approximately 10-20” for “METHOD A: In Example 11, approximately 5-15”, “RH” for “relative humidity (RH)”, “min,” for “minutes,”, “min)” for “minutes)”, “determined.” for “determined. XRPD analysis was then carried out on the residual solid.”

[4] = Karl Fischer coulometric titration (water content)
Description: In the examples below, KF titration measured using either an In Motion KF Autosampler or Direct Addition Method. The In Motion KF Autosampler was carried out via the following procedure. 15-20 mg of solid was weighed into a 10 mL glass vial and tightly sealed with a screw cap. Samples were analyzed using a Mettler Toledo C30SX and an InMotion KFOven Autosampler at 130° C. Samples were analyzed in duplicate and an average moisture content reported. See table below for further details.
The Direct Addition Method was carried out via the following procedure. 15-20 mg of solid material was accurately weighed into a vial. The solid was then manually introduced into the titration cell of a Mettler Toledo C30 Compact Titrator. The vial was back-weighed after the addition of the solid and the weight of the added solid entered on the instrument. Titration was initiated once the sample had fully dissolved in the cell. The water content was calculated automatically by the instrument as a percentage and the data printed.

[5] = listed as Crystalline Form 4 Compound 1 mono(hydrogen sulfate)

Compound	XRPD [1]	DSC (onset/peak): onset [2] [°C]	DSC (onset/peak): peak [2] [°C]	post-DVS sample (XRPD / appearance) [3]	KF moisture content [4] [% moisture]	TGA/DSC mass loss [2] [% mass loss]	TGA/DSC thermal event, onset [2] [°C]	TGA/DSC thermal event, peak [2] [°C]	DVS uptake ([3]; at 80% RH) [% uptake at]	moisture uptake (DVS) ([3]; between 0-10% RH, 25° C.)	moisture uptake (DVS) ([3]; between 10-80% RH, 25° C.)	also measured
COc1cc(C(=O)O[C@@H]2CCCOc3cc(cc(OC)c3OC)C(=O)NCCCN3CCCN(CC2)CC3)cc(OC)c1OC.O=S(=O)(O)O	Crystalline	113	119	conversion to crystalline Form 8 Compound 1 mono(hydrogen sulfate)	14.87	–	–	–	–	–	–	TGA/DSC mass loss [2, 5]: 15.5% mass loss; TGA/DSC thermal event, onset [2, 5]: 148 °C; TGA/DSC thermal event, peak [2, 5]: 160 °C; DVS: Conversion to (solid form) ([3]; after DVS at 40% RH): Form 8 after; DVS loss ([3]; at 20-30% RH (desorption)): 8.0% loss at; DVS uptake ([3]; at 40-50% RH (2nd sorption)): 8.1% uptake at; moisture loss (DVS) ([3]; between 20-30% RH): ca. 8.0%; moisture uptake (DVS) ([3]; between 40-40% RH during the sorption cycles): ca. 4.9%; moisture uptake (DVS) ([3]; between 40-50% RH): 8.1%; moisture uptake (DVS) ([3]; between 50-80% RH): ca. 2.2%
COc1cc(C(=O)O[C@@H]2CCCOc3cc(cc(OC)c3OC)C(=O)NCCCN3CCCN(CC2)CC3)cc(OC)c1OC.O=S(=O)(O)O.O=S(=O)(O)O [crystalline Form 3 Compound 1 di(hydrogen sulfate)]	Partially	–	–	conversion to crystalline Form 2 Compound 1 di(hydrogen sulfate) trihydrate	1.89	3.1	163	177	7.3	about 5.2%	ca. 2.1%	DVS: solid form conversion [3]: Conversion to P2; moisture uptake (DVS) ([3]; between 40-80% RH, first sorption cycle, 25° C.): ca. 7.1%
CCCN1CCNCCCNC(=O)c2cc(OC)c(OC)c(c2)OCCC[C@@H](OC(=O)c2cc(OC)c(OC)c(OC)c2)CC1	Crystalline	144	158	–	6.74	7.3	130	149	8.0	about 6.3%	1.7%	DVS: Dehydrates [3]: Dehydrates <15% RH
